Reference: patent US4472404A, “8-Quinolinyl carbamates and their use as urinary tract antimicrobials” (priority 1982, dated 1984)

system: Aspergillus niger; experiment: Agar-plate minimum inhibitory concentration (Example 12); type: cell-based; conditions: agar, 72-120 hours, read-out: Minimum Inhibitory Concentration
Description: (§1) The test compound was added to molten agar as a solution (when conveniently soluble in a solvent such as dimethylformamide) or a suspension forming a mixture having a concentration of 0.05 percent (500 ppm). The mixture was stirred and poured into plates to harden. When hardened, the plates were inoculated with various bacteria and fungi. The bacteria-inoculated plates were incubated at 37° C. for 24 hours, while the fungi-inoculated plates were incubated for about 72-120 hours. Following incubation, the plates were examined for growth or inhibition of the respective organisms.
(§2) After the initial readings, compounds showing sufficient activity were re-tested at various concentrations to determine the minimum inhibitory concentration (in ppm) of the compounds of the invention against the various bacteria and fungi tested.

| Structure (SMILES) | MIC |
| --- | --- |
| CCOC(=O)CNC(=O)Oc1ccc(Cl)c2cccnc12.CS(=O)(=O)O [Example 7, Ethyl N-(((5-chloro-8quinolinyl)oxy)carbonyl)glycinate methanesulfonic acid salt] | 50 µg/mL |

system: Bacillus subtilis; experiment: as above; type: cell-based; conditions: agar, 37° C., 24 hours, read-out: Minimum Inhibitory Concentration
Description: as §1, §2

| Structure (SMILES) | MIC |
| --- | --- |
| CCOC(=O)CNC(=O)Oc1ccc(Cl)c2cccnc12.CS(=O)(=O)O [Example 7, Ethyl N-(((5-chloro-8quinolinyl)oxy)carbonyl)glycinate methanesulfonic acid salt] | 5 µg/mL |

system: Candida albicans; experiment: as above; type: cell-based; conditions: agar, 72-120 hours, read-out: Minimum Inhibitory Concentration
Description: as §1, §2

| Structure (SMILES) | MIC |
| --- | --- |
| CCOC(=O)CNC(=O)Oc1ccc(Cl)c2cccnc12.CS(=O)(=O)O [Example 7, Ethyl N-(((5-chloro-8quinolinyl)oxy)carbonyl)glycinate methanesulfonic acid salt] | 50 µg/mL |

system: Candida pelliculosa; experiment: as above; type: cell-based; conditions: Hansenula anomala; Candida pelliculosa; agar, 72-120 hours; read-out: Minimum Inhibitory Concentration
Description: as §1, §2

| Structure (SMILES) | MIC |
| --- | --- |
| CCOC(=O)CNC(=O)Oc1ccc(Cl)c2cccnc12.CS(=O)(=O)O [Example 7, Ethyl N-(((5-chloro-8quinolinyl)oxy)carbonyl)glycinate methanesulfonic acid salt] | 50 µg/mL |

system: Ceratocystis ips; experiment: as above; type: cell-based; conditions: Ceratocystis ips; agar, 72-120 hours; read-out: Minimum Inhibitory Concentration
Description: as §1, §2

| Structure (SMILES) | MIC |
| --- | --- |
| CCOC(=O)CNC(=O)Oc1ccc(Cl)c2cccnc12.CS(=O)(=O)O [Example 7, Ethyl N-(((5-chloro-8quinolinyl)oxy)carbonyl)glycinate methanesulfonic acid salt] | 50 µg/mL |

system: Salmonella typhosa; experiment: as above; type: cell-based; conditions: Salmonella enterica; Salmonella typhosa; agar, 37° C., 24 hours; read-out: Minimum Inhibitory Concentration
Description: as §1, §2

| Structure (SMILES) | MIC |
| --- | --- |
| CCOC(=O)CNC(=O)Oc1ccc(Cl)c2cccnc12.CS(=O)(=O)O [Example 7, Ethyl N-(((5-chloro-8quinolinyl)oxy)carbonyl)glycinate methanesulfonic acid salt] | 10 µg/mL |

system: Streptococcus mutans; experiment: as above; type: cell-based; conditions: agar, 37° C., 24 hours, read-out: Minimum Inhibitory Concentration
Description: as §1, §2

| Structure (SMILES) | MIC |
| --- | --- |
| CCOC(=O)CNC(=O)Oc1ccc(Cl)c2cccnc12.CS(=O)(=O)O [Example 7, Ethyl N-(((5-chloro-8quinolinyl)oxy)carbonyl)glycinate methanesulfonic acid salt] | 500 µg/mL |

system: Trichophyton mentagrophytes; experiment: as above; type: cell-based; conditions: agar, 72-120 hours, read-out: Minimum Inhibitory Concentration
Description: as §1, §2

| Structure (SMILES) | MIC |
| --- | --- |
| CCOC(=O)CNC(=O)Oc1ccc(Cl)c2cccnc12.CS(=O)(=O)O [Example 7, Ethyl N-(((5-chloro-8quinolinyl)oxy)carbonyl)glycinate methanesulfonic acid salt] | 10 µg/mL |

system: Enterobacter aerogenes ATCC 13048; experiment: Minimum inhibitory concentration, urinary tract organisms (Example 13); type: cell-based; conditions: Klebsiella aerogenes, ATCC13048; Ea 13048; read-out: Minimum Inhibitory Concentration
Description: as §1, §2
(§3) Following a procedure substantially the same as that described in Example 12, the minimum inhibitory concentration for the compounds described herein was determined for various organisms representative of those commonly associated with urinary tract infections.
(§4) The organisms used in this procedure and the abbreviations designated in Table 3 are as follows: […]

| Structure (SMILES) | MIC |
| --- | --- |
| CCOC(=O)CNC(=O)Oc1ccc(Cl)c2cccnc12.CS(=O)(=O)O [Example 7, Ethyl N-(((5-chloro-8quinolinyl)oxy)carbonyl)glycinate methanesulfonic acid salt] | 75 µg/mL |

system: Escherichia coli ATCC 11229; experiment: as above; type: cell-based; conditions: ATCC11229, Ec 11229, read-out: Minimum Inhibitory Concentration
Description: as §1, §2, §3, §4

| Structure (SMILES) | MIC |
| --- | --- |
| CCOC(=O)CNC(=O)Oc1ccc(Cl)c2cccnc12.CS(=O)(=O)O [Example 7, Ethyl N-(((5-chloro-8quinolinyl)oxy)carbonyl)glycinate methanesulfonic acid salt] | 50 µg/mL |

system: Escherichia coli ATCC 25922; experiment: as above; type: cell-based; conditions: ATCC25922, Ec 25922, read-out: Minimum Inhibitory Concentration
Description: as §1, §2, §3, §4

| Structure (SMILES) | MIC |
| --- | --- |
| CCOC(=O)CNC(=O)Oc1ccc(Cl)c2cccnc12.CS(=O)(=O)O [Example 7, Ethyl N-(((5-chloro-8quinolinyl)oxy)carbonyl)glycinate methanesulfonic acid salt] | 25 µg/mL |

system: Escherichia coli ATCC 4157; experiment: as above; type: cell-based; conditions: ATCC4157, Ec 4157, read-out: Minimum Inhibitory Concentration
Description: as §1, §2, §3, §4

| Structure (SMILES) | MIC |
| --- | --- |
| CCOC(=O)CNC(=O)Oc1ccc(Cl)c2cccnc12.CS(=O)(=O)O [Example 7, Ethyl N-(((5-chloro-8quinolinyl)oxy)carbonyl)glycinate methanesulfonic acid salt] | 50 µg/mL |

system: Escherichia coli ATCC 9723; experiment: as above; type: cell-based; conditions: ATCC9723, Ec 9723, read-out: Minimum Inhibitory Concentration
Description: as §1, §2, §3, §4

| Structure (SMILES) | MIC |
| --- | --- |
| CCOC(=O)CNC(=O)Oc1ccc(Cl)c2cccnc12.CS(=O)(=O)O [Example 7, Ethyl N-(((5-chloro-8quinolinyl)oxy)carbonyl)glycinate methanesulfonic acid salt] | 50 µg/mL |

system: Klebsiella pneumoniae ATCC 23357; experiment: as above; type: cell-based; conditions: ATCC23357, Kp 23357, read-out: Minimum Inhibitory Concentration
Description: as §1, §2, §3, §4

| Structure (SMILES) | MIC |
| --- | --- |
| CCOC(=O)CNC(=O)Oc1ccc(Cl)c2cccnc12.CS(=O)(=O)O [Example 7, Ethyl N-(((5-chloro-8quinolinyl)oxy)carbonyl)glycinate methanesulfonic acid salt] | 75 µg/mL |

system: Klebsiella pneumoniae M-1; experiment: as above; type: cell-based; conditions: M1, Kp M-1, read-out: Minimum Inhibitory Concentration
Description: as §1, §2, §3, §4

| Structure (SMILES) | MIC |
| --- | --- |
| CCOC(=O)CNC(=O)Oc1ccc(Cl)c2cccnc12.CS(=O)(=O)O [Example 7, Ethyl N-(((5-chloro-8quinolinyl)oxy)carbonyl)glycinate methanesulfonic acid salt] | 75 µg/mL |

system: Klebsiella pneumoniae M-2; experiment: as above; type: cell-based; conditions: M2, Kp M-2, read-out: Minimum Inhibitory Concentration
Description: as §1, §2, §3, §4

| Structure (SMILES) | MIC |
| --- | --- |
| CCOC(=O)CNC(=O)Oc1ccc(Cl)c2cccnc12.CS(=O)(=O)O [Example 7, Ethyl N-(((5-chloro-8quinolinyl)oxy)carbonyl)glycinate methanesulfonic acid salt] | 75 µg/mL |

system: Klebsiella pneumoniae M-6; experiment: as above; type: cell-based; conditions: M6, Kp M-6, read-out: Minimum Inhibitory Concentration
Description: as §1, §2, §3, §4

| Structure (SMILES) | MIC |
| --- | --- |
| CCOC(=O)CNC(=O)Oc1ccc(Cl)c2cccnc12.CS(=O)(=O)O [Example 7, Ethyl N-(((5-chloro-8quinolinyl)oxy)carbonyl)glycinate methanesulfonic acid salt] | 50 µg/mL |

system: Proteus mirabilis 470/1; experiment: as above; type: cell-based; conditions: Pm 470/1, read-out: Minimum Inhibitory Concentration
Description: as §1, §2, §3, §4

| Structure (SMILES) | MIC |
| --- | --- |
| CCOC(=O)CNC(=O)Oc1ccc(Cl)c2cccnc12.CS(=O)(=O)O [Example 7, Ethyl N-(((5-chloro-8quinolinyl)oxy)carbonyl)glycinate methanesulfonic acid salt] | 75 µg/mL |

system: Pseudomonas aeruginosa ATCC 10145; experiment: as above; type: cell-based; conditions: ATCC10145, Pa 10145, read-out: Minimum Inhibitory Concentration
Description: as §1, §2, §3, §4

| Structure (SMILES) | MIC |
| --- | --- |
| CCOC(=O)CNC(=O)Oc1ccc(Cl)c2cccnc12.CS(=O)(=O)O [Example 7, Ethyl N-(((5-chloro-8quinolinyl)oxy)carbonyl)glycinate methanesulfonic acid salt] | 75 µg/mL |

system: Pseudomonas aeruginosa ATCC 27853; experiment: as above; type: cell-based; conditions: ATCC27853, Pa 27853, read-out: Minimum Inhibitory Concentration
Description: as §1, §2, §3, §4

| Structure (SMILES) | MIC |
| --- | --- |
| CCOC(=O)CNC(=O)Oc1ccc(Cl)c2cccnc12.CS(=O)(=O)O [Example 7, Ethyl N-(((5-chloro-8quinolinyl)oxy)carbonyl)glycinate methanesulfonic acid salt] | 250 µg/mL |

system: Pseudomonas aeruginosa ATCC 7700; experiment: as above; type: cell-based; conditions: ATCC7700, Pa 7700, read-out: Minimum Inhibitory Concentration
Description: as §1, §2, §3, §4

| Structure (SMILES) | MIC |
| --- | --- |
| CCOC(=O)CNC(=O)Oc1ccc(Cl)c2cccnc12.CS(=O)(=O)O [Example 7, Ethyl N-(((5-chloro-8quinolinyl)oxy)carbonyl)glycinate methanesulfonic acid salt] | 250 µg/mL |

system: Pseudomonas aeruginosa PRD-10; experiment: as above; type: cell-based; conditions: PRD10, Pa PRD-10, read-out: Minimum Inhibitory Concentration
Description: as §1, §2, §3, §4

| Structure (SMILES) | MIC |
| --- | --- |
| CCOC(=O)CNC(=O)Oc1ccc(Cl)c2cccnc12.CS(=O)(=O)O [Example 7, Ethyl N-(((5-chloro-8quinolinyl)oxy)carbonyl)glycinate methanesulfonic acid salt] | 250 µg/mL |

system: Serratia marcescens M-1; experiment: as above; type: cell-based; conditions: M1, Sr M-1, read-out: Minimum Inhibitory Concentration
Description: as §1, §2, §3, §4

| Structure (SMILES) | MIC |
| --- | --- |
| CCOC(=O)CNC(=O)Oc1ccc(Cl)c2cccnc12.CS(=O)(=O)O [Example 7, Ethyl N-(((5-chloro-8quinolinyl)oxy)carbonyl)glycinate methanesulfonic acid salt] | 100 µg/mL |

system: Staphylococcus aureus ATCC 25923; experiment: as above; type: cell-based; conditions: ATCC25923, Sa 25923, read-out: Minimum Inhibitory Concentration
Description: as §1, §2, §3, §4

| Structure (SMILES) | MIC |
| --- | --- |
| CCOC(=O)CNC(=O)Oc1ccc(Cl)c2cccnc12.CS(=O)(=O)O [Example 7, Ethyl N-(((5-chloro-8quinolinyl)oxy)carbonyl)glycinate methanesulfonic acid salt] | < 5 µg/mL |
